Source: patent publication US11053235B2, “Substituted 1,4-dihydropyrimidines for the treatment of HBV infection or HBV-induced diseases” (Janssen Sciences Ireland Unlimited Company, priority 2018, dated 2021)
Like-named read-outs stand apart in the source and are kept apart here.

Legend:
HBV = test: Anti-viral assay in HepG2.2.15 cells: HBV inhibitory activity (HBV DNA in culture medium by q-PCR); type: cell-based; conditions: HepG2.2.15 cells, 6 days treatment, HBV DNA in culture medium by q-PCR, highest concentration 10 uM, read-out: EC50
Source text: (§1) Example 2: Anti-Viral Assay in HepG2.2.15 Cells
(§2) 1.1. Cell Line • HepG2.2.15 (the HepG2.2.15 cell line can be produced by transfection of the HepG2 cell line as described in Sells, Chen, and Acs 1987 (Proc. Natl. Acad. Sci. USA 84:1005-1009), and the HepG2 cell line is available from ATCC® under number HB-8065™). Reagents • DMEM/F12 (INVITROGEN-11330032) • FBS (GIBCO-10099-141) • Dimethyl sulfoxide(DMSO) (SIGMA-D2650) • Penicillin-streptomycin solution (HYCLONE-SV30010) • NEAA (INVITROGEN-1114050) • L-Glutamine (INVITROGEN-25030081) • Geneticin Selective Antibiotic (G418, 500 mg/ml) (INVITROGEN-10131027) • Trypsinase digestion solution (INVITROGEN-25300062) • CCK8 (BIOLOTE-35004) • QIAamp 96 DNA Blood Kit (12) (QIAGEN-51162) • FastStart Universal Probe Mast Mix (ROCHE-04914058001)
(§3) 2.1. HBV Inhibitory Activity and Cytotoxicity Determination
(§4) Seed the cell HepG2.2.15 cells into 96-well plate in 2% FBS culture medium at the density of 40,000 cells/well and 5,000 cells/well for HBV inhibitory activity and cytotoxicity determination, respectively. After seeding, incubate the cell plates at 37° C., 5% CO2 overnight. The next day, medium containing compounds is added to the cell to treat the cells for 6 days with medium refreshed once in the middle of the treatment. 8 dose points with 3 folds dilution of each compound were adopted and the highest concentration of the compounds is 10 uM and 100 uM for HBV inhibitory activity and cytotoxicity determination, respectively.
The HBV DAN change in the cell culture medium induced by the compounds is measured by q-PCR method. Briefly, the HBV DNA in the culture medium is extracted using QIAamp 96 DNA Blood Kit according to the manual and then quantified by q-PCR using the primers and probe in the table below.
(§5) EC50 and CC50 values are calculated by the GRAPHPAD PRISM software.

[1] = Cytotoxicity determination in HepG2.2.15 cells (CCK-8); type: cell-based; conditions: human, 6 days treatment, CCK-8, highest concentration 100 uM
Source text: as §1, §2, §3, §4
After 6 days of compounds treatment, add 20 μl CCK-8 reagents to each well of cytotoxicity assay plates, incubate the plate at 37° C., 5% CO2 for 2.5 h and measure the absorbance at 450 nm wavelength, at the same time read the absorbance at 630 nm wavelength as reference.
as §5

[2] = Hepatitis B virus, HepG2.2.15, 144 h

Row | Structure (SMILES) | EC50 (HBV; [2]) [nM] | CC50 at 6 days [1] [nM] | EC50 (HBV) [nM]
1 | CCOC(=O)C1=C([C@H]2CC[C@H](c3nc(CCC(=O)O)co3)CC2)NC(c2nccs2)=NC1c1ccc(F)c(F)c1Cl (relative stereo) [Compound I-24, (trans)-3-(2-(4-(6-(2-Chloro-3,4-difluorophenyl)-5-(ethoxycarbonyl)-2-(thiazol-2-yl)-3,6-dihydropyrimidin-4-yl)cyclohexyl)oxazol-4-yl)propanoic acid] | 12 | 7550 | –
2 | COC(=O)C1=C([C@H]2CC[C@H](c3nc(C(=O)O)co3)CC2)NC(c2nccs2)=NC1c1ccc(F)c(F)c1Cl (single isomer, unassigned) [Compound I-1-C, (trans)-2-(4-(6-(2-Chloro-3,4-difluorophenyl)-5-(methoxycarbonyl)-2-(thiazol-2-yl)-3,6-dihydropyrimidin-4-yl)cyclohexyl)oxazole-4-carboxylic Acid] | 7.5 | 13600 | –
3 | CCOC(=O)C1=C([C@H]2CC[C@H](c3nc(C(=O)O)co3)CC2)NC(c2nccs2)=NC1c1ccc(F)c(F)c1Cl (single isomer, unassigned) [Compound I-2-D, (trans)-2-(4-(6-(2-Chloro-3,4-difluorophenyl)-5-(ethoxycarbonyl)-2-(thiazol-2-yl)-3,6-dihydropyrimidin-4-yl)cyclohexyl)oxazole-4-carboxylic Acid] | 6 | 9370 | –
4 | COC(=O)C1=C([C@H]2CC[C@H](c3nc(C(=O)O)co3)CC2)NC(c2nccs2)=NC1c1cccc(F)c1C (single isomer, unassigned) [Compound I-3-D, trans-2-(4-(6-(3-Fluoro-2-methylphenyl)-5-(methoxycarbonyl)-2-(thiazol-2-yl)-3,6-dihydropyrimidin-4-yl)cyclohexyl)oxazole-4-carboxylic Acid] | 140 | 14200 | –
5 | COC(=O)C1=C([C@H]2CC[C@H](c3nc(C(=O)O)co3)CC2)NC(c2nccs2)=NC1c1ccc(F)cc1Cl (single isomer, unassigned) [Compound I-4-B, (trans)-2-(4-(6-(2-Chloro-4-fluorophenyl)-5-(methoxycarbonyl)-2-(thiazol-2-yl)-3,6-dihydropyrimidin-4-yl)cyclohexyl)oxazole-4-carboxylic Acid] | 11 | 16400 | –
6 | COC(=O)C1=C([C@H]2CC[C@H](c3nc(C(=O)O)co3)CC2)NC(c2nccs2)=NC1c1cccc(F)c1Cl (single isomer, unassigned) [Compound I-5-B, (trans)-2-(4-(6-(2-Chloro-3-fluorophenyl)-5-(methoxycarbonyl)-2-(thiazol-2-yl)-3,6-dihydropyrimidin-4-yl)cyclohexyl)oxazole-4-carboxylic Acid] | 60 | 19300 | –
7 | COC(=O)C1=C([C@H]2CC[C@H](c3nc(C(=O)O)co3)CC2)NC(c2nccs2)=NC1c1ccc(F)cc1C (single isomer, unassigned) [Compound I-6-B, (trans)-2-(4-(6-(4-Fluoro-2-methylphenyl)-5-(methoxycarbonyl)-2-(thiazol-2-yl)-3,6-dihydropyrimidin-4-yl)cyclohexyl)oxazole-4-carboxylic Acid] | 72 | 17400 | –
8 | COC(=O)C1=C([C@H]2CC[C@H](c3nc(C(=O)O)co3)CC2)NC(c2ncc(F)cc2F)=NC1c1ccc(F)c(F)c1Cl (single isomer, unassigned) [Compound I-7-B, (trans)-2-(4-(6-(2-chloro-3,4-difluorophenyl)-2-(3,5-difluoropyridin-2-yl)-5-(methoxycarbonyl)-3,6-dihydropyrimidin-4-yl)cyclohexyl)oxazole-4-carboxylic acid] | 24 | 14300 | –
9 | COC(=O)C1=C(C23CC(c4nc(C(=O)O)co4)(C2)C3)NC(c2nccs2)=NC1c1ccc(F)c(F)c1Cl (single isomer, unassigned) [Compound I-8-B, 2-(3-(6-(2-Chloro-3,4-difluorophenyl)-5-(methoxycarbonyl)-2-(thiazol-2-yl)-3,6-dihydropyrimidin-4-yl)bicyclo[1.1.1]pentan-1-yl)oxazole-4-carboxylic Acid] | 51 | 26600 | –
10 | CCOC(=O)C1=C([C@H]2CC[C@H](c3nc(C(=O)O)co3)CC2)NC(c2nccs2)=NC1c1cccc(F)c1Cl (single isomer, unassigned) [Compound I-9-B, (trans)-2-(4-(6-(2-chloro-3-fluorophenyl)-5-(ethoxycarbonyl)-2-(thiazol-2-yl)-3,6-dihydropyrimidin-4-yl)cyclohexyl)oxazole-4-carboxylic Acid] | 25 | 12300 | –
11 | CCOC(=O)C1=C([C@H]2CC[C@H](c3nc(C(=O)O)co3)CC2)NC(c2nccs2)=NC1c1ccc(F)cc1Cl (single isomer, unassigned) [Compound I-10-C, (trans)-2-(4-(6-(2-Chloro-4-fluorophenyl)-5-(ethoxycarbonyl)-2-(thiazol-2-yl)-3,6-dihydropyrimidin-4-yl)cyclohexyl)oxazole-4-carboxylic Acid] | 22 | 7640 | –
12 | CCOC(=O)C1=C([C@H]2CC[C@H](c3nc(C(=O)O)co3)CC2)NC(c2nccs2)=NC1c1cccc(F)c1C (single isomer, unassigned) [Compound I-11-B, (trans)-2-(4-(5-(Ethoxycarbonyl)-6-(3-fluoro-2-methylphenyl)-2-(thiazol-2-yl)-3,6-dihydropyrimidin-4-yl)cyclohexyl)oxazole-4-carboxylic Acid] | 37 | 12100 | –
13 | CCOC(=O)C1=C([C@H]2CC[C@H](c3nc(C(=O)O)co3)CC2)NC(c2nccs2)=NC1c1ccc(F)cc1C (single isomer, unassigned) [Compound I-12-C, (trans)-2-(4-(5-(Ethoxycarbonyl)-6-(4-fluoro-2-methylphenyl)-2-(thiazol-2-yl)-3,6-dihydropyrimidin-4-yl)cyclohexyl)oxazole-4-carboxylic Acid] | 36 | 11100 | –
14 | CCOC(=O)C1=C(C2CC=C(c3nc(C(=O)O)co3)CC2)NC(c2nccs2)=NC1c1ccc(F)c(F)c1Cl (single isomer, unassigned) [Compound I-13-C, 2-(4-(6-(2-chloro-3,4-difluorophenyl)-5-(ethoxycarbonyl)-2-(thiazol-2-yl)-3,6-dihydropyrimidin-4-yl)cyclohex-1-en-1-yl)oxazole-4-carboxylic Acid] | – | 5610 | 6.5
15 | CCOC(=O)C1=C([C@H]2CC[C@H](c3nc(C(=O)O)c(C)o3)CC2)NC(c2nccs2)=NC1c1ccc(F)c(F)c1Cl (single isomer, unassigned) [Compound I-14-B, (trans)-2-(4-(6-(2-Chloro-3,4-difluorophenyl)-5-(ethoxycarbonyl)-2-(thiazol-2-yl)-3,6-dihydropyrimidin-4-yl)cyclohexyl)-5-methyloxazole-4-carboxylic Acid] | 4.7 | 3720 | –
16 | CCOC(=O)C1=C([C@H]2CC[C@H](Cc3nc(C(=O)O)co3)CC2)NC(c2nccs2)=NC1c1ccc(F)c(F)c1Cl (single isomer, unassigned) [Compound I-15-A, (trans)-2-((4-(6-(2-chloro-3,4-difluorophenyl)-5-(ethoxycarbonyl)-2-(thiazol-2-yl)-3,6-dihydropyrimidin-4-yl)cyclohexyl)methyl)oxazole-4-carboxylic Acid] | 66 | 6270 | –
17 | COC(=O)C1=C([C@H]2CC[C@H](c3nc(CC(=O)O)co3)CC2)NC(c2nccs2)=NC1c1ccc(F)c(F)c1Cl (single isomer, unassigned) [Compound I-16-B, (trans)-2-(2-(4-(6-(2-Chloro-3,4-difluorophenyl)-5-(methoxycarbonyl)-2-(thiazol-2-yl)-3,6-dihydropyrimidin-4-yl)cyclohexyl)oxazol-4-yl)acetic Acid] | 4.8 | 12400 | –
18 | CCOC(=O)Cc1coc([C@H]2CC[C@H](C3=C(C(=O)OCC)C(c4ccc(F)c(F)c4Cl)N=C(c4nccs4)N3)CC2)n1 (single isomer, unassigned) [VII-23-Y, (trans)-Ethyl 4-(2-chloro-3,4-difluorophenyl)-(4-(4-(2-ethoxy-2-oxoethyl)oxazol-2-yl)cyclohexyl)-2-(thiazol-2-yl)-1,4-dihydropyrimidine-5-carboxylate] | 23 | – | –
